# According to ChEMBL document CHEMBL6092167, “Phosphorylation as an Effective Tool to Improve Stability and Reduce Toxicity of Antimicrobial Peptides” (J Med Chem, 2024):
# Active and inactive are the calls of the source. The rule behind the calls is not given here. Non-standard residues stand in square brackets, D forms with d. Residues, ends and D or L forms follow the SMILES beside them. Bip = N[C@@H](Cc1ccc(-c2ccccc2)cc1)C(=O)O
# What was measured:
# Pseudomonas aeruginosa [1] = test: Inhibition of biofilm formation in Pseudomonas aeruginosa ATCC 27853 incubated for 24 hrs by crystal violet staining based assay; format: functional, organism-based
# Cell membrane [2] = test: Induction of membrane damage in Pseudomonas aeruginosa ATCC 27853 assessed as change in membrane shape at 2 times MIC incubated for 30 to 120 mins by SEM analysis; format: subcellular; details: time 30-120 min
# Pseudomonas aeruginosa [3] = test: Antibacterial activity against Pseudomonas aeruginosa 119 incubated for 18 to 24 hrs by broth microdilution method; format: functional; details: time 18-24 hrs
# Klebsiella pneumoniae [4] = test: Additive antibacterial activity against Klebsiella pneumoniae ATCC 700603 assessed as fractional inhibitory concentration index at 1/4 to 4 times MIC incubated for 18 to 24 hrs in presence of kanamycin by checkerboard assay; format: functional; details: time 18-24 hrs
# Klebsiella pneumoniae [5] = test: Additive antibacterial activity against Klebsiella pneumoniae ATCC 700603 assessed as fractional inhibitory concentration index at 1/4 to 4 times MIC incubated for 18 to 24 hrs in presence of ciprofloxacin by checkerboard assay; format: functional; details: time 18-24 hrs
# Cell membrane [6] = test: Induction of cytoplasmic membrane rupture in Pseudomonas aeruginosa ATCC 27853 assessed as wrinkling at 2 times MIC incubated for 30 to 120 mins by SEM analysis; format: subcellular; details: time 30-120 min
# Cell membrane [7] = test: Induction of cell membrane disruption in Staphylococcus aureus ATCC 25923 at 2 times MIC incubated for 2 hrs by SEM analysis; format: subcellular
# Cell membrane [8] = test: Induction of cytoplasmic membrane rupture in Pseudomonas aeruginosa ATCC 27853 assessed as adhesion at 2 times MIC incubated for 30 to 120 mins by SEM analysis; format: subcellular; details: time 30-120 min
# Cell membrane [9] = test: Induction of cytoplasmic membrane rupture in Pseudomonas aeruginosa ATCC 27853 assessed as leakage of cellular content at 2 times MIC incubated for 30 to 120 mins by SEM analysis; format: subcellular; details: time 30-120 min
# Staphylococcus aureus [10] = test: Antibacterial activity against Staphylococcus aureus ATCC 25923 incubated for 18 to 24 hrs by broth microdilution method; format: functional; details: time 18-24 hrs
# Pseudomonas aeruginosa [11] = test: Antibiofilm activity against Pseudomonas aeruginosa ATCC 27853 assessed as eradication of preformed biofilms incubated for 24 hrs by crystal violet staining based assay; format: functional, organism-based
# Escherichia coli [12] = test: Antibacterial activity against Escherichia coli 780 incubated for 18 to 24 hrs by broth microdilution method; format: functional; details: time 18-24 hrs
# Staphylococcus aureus [13] = test: Antibacterial activity against methicillin resistant Staphylococcus aureus 48 incubated for 18 to 24 hrs by broth microdilution method; format: functional; details: time 18-24 hrs
# [14] = Stability in Kunming mouse serum assessed as half life measured upto 24 hrs by RP-HPLC method; format: ADME, cell-free
# Escherichia coli [15] = test: Antibiofilm activity against Escherichia coli ATCC 25922 assessed as eradication of preformed biofilms incubated for 24 hrs by crystal violet staining based assay; format: functional, organism-based
# Klebsiella pneumoniae [16] = test: Antibacterial activity against kanamycin resistant Klebsiella pneumoniae; format: functional
# Cell membrane [17] = test: Induction of cytoplasmic membrane rupture in Pseudomonas aeruginosa ATCC 27853 assessed as blistering at 2 times MIC incubated for 30 to 120 mins by SEM analysis; format: subcellular; details: time 30-120 min
# [18] = Cytotoxicity against HEK293T cells incubated for 1 hr by fluorescence based microplate reader assay; format: toxicity, cell-based, HEK-293T; details: human
# Cell membrane [19] = test: Induction of cell membrane disruption in Pseudomonas aeruginosa ATCC 27853 at 2 times MIC incubated for 2 hrs by SEM analysis; format: subcellular
# Chymotrypsin = Chymotrypsin (Homo sapiens, UniProt Q99895+P17538+P40313+Q6GPI1); test: Stability of compound assessed as chymotrypsin (unknown origin) mediated compound degradation; format: ADME, protein assay
# Pseudomonas aeruginosa [20] = test: Antibacterial activity against Pseudomonas aeruginosa ATCC 27853 incubated for 18 to 24 hrs by broth microdilution method; format: functional; details: time 18-24 hrs
# Klebsiella pneumoniae [21] = test: Inhibition of biofilm formation in Klebsiella pneumoniae ATCC 700603 incubated for 24 hrs by crystal violet staining based assay; format: functional, organism-based
# Escherichia coli [22] = test: Antibacterial activity against Escherichia coli ATCC 25922 incubated for 18 to 24 hrs by broth microdilution method; format: functional; details: time 18-24 hrs
# Staphylococcus aureus [23] = test: Inhibition of biofilm formation in Staphylococcus aureus ATCC 25923 at 1 time MIC incubated for 24 hrs by crystal violet staining based assay; format: functional, organism-based
# Cell membrane [24] = test: Induction of cytoplasmic membrane rupture in Staphylococcus aureus ATCC 25923 assessed as shrinkage at 2 times MIC incubated for 30 to 120 mins by SEM analysis; format: subcellular; details: time 30-120 min
# Cell membrane [25] = test: Induction of inner membrane permeabilization in Escherichia coli ML-35 assessed as increase in […] intensity measured every 5 mins for 135 mins by ONPG dye based microplate reader assay; format: subcellular
# Escherichia coli [26] = test: Antibacterial activity against Escherichia coli 850 incubated for 18 to 24 hrs by broth microdilution method; format: functional; details: time 18-24 hrs
# Bacillus subtilis = test: Antibacterial activity against Bacillus subtilis ATCC 23857 incubated for 18 to 24 hrs by broth microdilution method; format: functional; details: time 18-24 hrs
# Klebsiella pneumoniae [27] = test: Inhibition of kanamycin resistance in Klebsiella pneumoniae ATCC 700603 at 1:1 compound: kanamycin molar ratio measured after 20 generation; format: functional, organism-based
# Cell membrane [28] = test: Induction of outer membrane permeabilization in Escherichia coli ATCC 25922 assessed as increase in fluorescence intensity incubated for 1 min by NPN dye based microplate reader assay; format: subcellular
# Cell membrane [29] = test: Induction of cytoplasmic membrane rupture in Staphylococcus aureus ATCC 25923 assessed as content leakage at 2 times MIC incubated for 30 to 120 mins by SEM analysis; format: subcellular; details: time 30-120 min
# Klebsiella pneumoniae [30] = test: Antibiofilm activity against Klebsiella pneumoniae ATCC 700603 assessed as eradication of preformed biofilms at 2 to 4 times MIC incubated for 24 hrs by crystal violet staining based assay; format: functional, organism-based
# Klebsiella pneumoniae [31] = test: Synergistic antibacterial activity against Klebsiella pneumoniae ATCC 700603 assessed as fractional inhibitory concentration index at 1/4 to 4 times MIC incubated for 18 to 24 hrs in presence of polymyxin B by checkerboard assay; format: functional; details: time 18-24 hrs
# [32] = Toxicity in ip dosed BALB/c mouse measured after 14 days; format: organism-based; details: in vivo, time 14 day
# Staphylococcus aureus [33] = test: Antibacterial activity against methicillin resistant Staphylococcus aureus ATCC 33591 incubated for 18 to 24 hrs by broth microdilution method; format: functional; details: time 18-24 hrs
# Staphylococcus aureus [34] = test: Antibiofilm activity against Staphylococcus aureus ATCC 25923 assessed as eradication of preformed biofilms incubated for 24 hrs by crystal violet staining based assay; format: functional, organism-based
# Staphylococcus aureus [35] = test: Antibacterial activity against Staphylococcus aureus 794 incubated for 18 to 24 hrs by broth microdilution method; format: functional; details: time 18-24 hrs
# Klebsiella pneumoniae [36] = test: Antibiofilm activity against Klebsiella pneumoniae ATCC 700603 assessed as eradication of preformed biofilms incubated for 24 hrs by crystal violet staining based assay; format: functional, organism-based
# Cell membrane [37] = test: Induction of cytoplasmic membrane rupture in Staphylococcus aureus ATCC 25923 assessed as adhesion at 2 times MIC incubated for 30 to 120 mins by SEM analysis; format: subcellular; details: time 30-120 min
# Klebsiella pneumoniae [38] = test: Antibacterial activity against Klebsiella pneumoniae ATCC 700603 incubated for 18 to 24 hrs by broth microdilution method; format: functional; details: time 18-24 hrs
# Escherichia coli [39] = test: Antibacterial activity against Escherichia coli 25922 assessed as interaction with LPS by measuring bacterial mortality at 2 times MIC preincubated with LPS for 1 hr followed by bacterial addition and measured after overnight by microplate reader assay; format: functional, organism-based
# Klebsiella pneumoniae [40] = test: Durg resistance development in Klebsiella pneumoniae ATCC 700603 measured after 20 passage; format: functional, organism-based
# Cell membrane [41] = test: Induction of inner membrane permeabilization in Escherichia coli ML-35 assessed as increase in […] intensity by ONPG dye based microplate reader assay; format: subcellular
smiles,measurement,setting,value
CC(C)C[C@H](NC(=O)[C@H](CC(C)C)NC(=O)[C@H](Cc1ccc(O)cc1)NC(=O)[C@H](CCCCN)NC(=O)[C@H](CC(C)C)NC(=O)[C@H](CCCNC(=N)N)NC(=O)[C@H](CCCCN)NC(=O)[C@H](Cc1ccc(-c2ccccc2)cc1)NC(=O)[C@H](CC(C)C)NC(=O)CN)C(N)=O (H-GL[Bip]KRLKYLL-NH2),inhibition,Pseudomonas aeruginosa [1],Dose-dependent-effect; Inhibition Comparable To Polymyxin B
same,Activity,Cell membrane [2],Active
same,MIC,Pseudomonas aeruginosa [3],8 µM
same,fractional inhibitory concentration index (FICI),Klebsiella pneumoniae [4],0.563
same,fractional inhibitory concentration index (FICI),Klebsiella pneumoniae [5],0.75
same,Activity,Cell membrane [6],Active
same,Activity,Cell membrane [7],Active; More Potent Than Polymyxin B And Vancomycin
same,Activity,Cell membrane [8],Active
same,Activity,Cell membrane [9],Active
same,MIC,Staphylococcus aureus [10],8 µM
same,Activity,Pseudomonas aeruginosa [11],Dose-dependent-effect; Superior Activity Compared To Polymyxin B And Vancomycin
same,MIC,Escherichia coli [12],8 µM
same,MIC,Staphylococcus aureus [13],8 µM
same,half-life,[14],1.36 h
same,Activity,Escherichia coli [15],Dose-dependent-effect; Superior Activity Compared To Polymyxin B And Vancomycin
same,MIC,Klebsiella pneumoniae [16],8 µM
same,Activity,Cell membrane [17],Active
same,CC50 at 1 h,[18],50.9 µM
same,Activity,Cell membrane [19],Active; More Potent Than Polymyxin B And Vancomycin
same,Stability,Chymotrypsin,Stable
same,MIC,Pseudomonas aeruginosa [20],8 µM
same,inhibition,Klebsiella pneumoniae [21],Dose-dependent-effect; Inhibition Comparable To Polymyxin B
same,MIC,Escherichia coli [22],8 µM
same,inhibition,Staphylococcus aureus [23],Active
same,Activity,Cell membrane [24],Active
same,Activity,Cell membrane [25],Dose-dependent-effect; More Potent Than 1% Triton X-100 And Polymyxin B
same,MIC,Escherichia coli [26],8 µM
same,MIC,Bacillus subtilis,4 µM
same,inhibition,Klebsiella pneumoniae [27],Active
same,Activity,Cell membrane [28],Dose-dependent-effect
same,Activity,Cell membrane [29],Active
same,Activity,Klebsiella pneumoniae [30],Active
same,fractional inhibitory concentration index (FICI),Klebsiella pneumoniae [31],0.5
same,LD50 at 336 h,[32],66.7 mg/kg
same,MIC,Staphylococcus aureus [33],8 µM
same,Activity,Staphylococcus aureus [34],Dose-dependent-effect; Superior Activity Compared To Polymyxin B And Vancomycin
same,MIC,Staphylococcus aureus [35],8 µM
same,Activity,Klebsiella pneumoniae [36],Dose-dependent-effect; Superior Activity Compared To Polymyxin B And Vancomycin
same,Activity,Cell membrane [37],Active
same,MIC,Klebsiella pneumoniae [38],8 µM
same,Activity,Escherichia coli [39],Active; Activity Comparable To Polymyxin B
same,Activity,Klebsiella pneumoniae [40],inactive
same,Activity,Cell membrane [41],Time-dependent-effect; More Potent Than 1% Triton X-100 And Polymyxin B
